# Laboratory results from patent US6867284B1, “Peptide inhibitors of hepatitis C virus NS3 protease” (Istituto di Ricerche di Biologia Molecolare P. Angeletti …, priority 1998, dated 2005).
# Where two headings read alike, the source gives them in different places. Numbered stars: 1 amine (or outer) side, 2 acyl side, 3 side chain; on linkers, the order of the positions; unused ones are H or OH. Square brackets hold non-standard residues; d marks the D form. Peptide text beside a SMILES is read from it. * marks the point of attachment. ξ: configuration not given here. ξAbu(4,4-F2)ψ(COCO) = O=C(C(=O)[*:2])C(CC(F)F)N[*:1]; Dip = N[C@H](C(=O)O)C(c1ccccc1)c1ccccc1; X6 = O=C(NS(=O)(=O)c1ccccc1)C(CC(F)F)N*; X5 = O=C(c1nc2ccccc2s1)C(CC(F)F)N*; X8 = O=C(c1nc2ccccc2o1)C(CC(F)F)N*; X1 = O=C(c1ncc[nH]1)C(CC(F)F)N*; ξAla(CF3) = NC(CC(F)(F)F)C(=O)O; Cha = N[C@@H](CC1CCCCC1)C(=O)O; Ile(3ξ) = CCC(C)[C@H](N)C(=O)O; X3 = O=C(C(CC(F)F)N[*:1])[*:2]; Suc = O=C(CCC(=O)[*:2])[*:1]; X2 = O=C(c1ccco1)C(CC(F)F)N*; X4 = COC(=O)C(=O)C(CC(F)F)N*; X7 = O=C(c1nccs1)C(CC(F)F)N*; X9 = O=C(O)CC(CC(F)F)N*; NHBn = c1ccc(CN*)cc1
# Target: T1, HCV NS3 protease (Hepatitis C virus genotype 1b, UniProt P26663)
# T1 construct: an NS3/4A complex comprising the NS3 protease domain
# Assay: Inhibition of NS3 protease (HPLC cleavage assay, NS3/4A complex with Pep4AK, substrate peptide 4AB)
# Assay type: biochemical
# Description: Buffer solutions containing 80 μM Pep4AK were preincubated for 10 minutes with 10-200 nM protease and reactions were started by addition of substrate. Six duplicate data points at different substrate concentrations were used to calculate kinetic parameters. Incubation times were chosen in order to obtain <7% substrate conversion and reactions were stopped by addition of 40 μl 1% TFA. Cleavage of peptide substrates was determined by HPLC using a Merck-Hitachi chromatograph equipped with an autosampler. 80 μl samples were injected on a Lichrospher C18 reversed phase cartridge column (4×74 mm, 5 μm, Merck) and fragments were separated using a 10-40% acetonitrile gradient a 5%/min using a flow rate of 2.5 ml/min. Peak detection was accomplished by monitoring both the absorbance at 220 nm and tyrosine fluorescence (λex=260 nm, λem=305 nm). Cleavage products were quantitated by integration of chromatograms with respect to appropriate standards. Kinetic parameters were calculated from nonlinear least-squares fit of initial rates as a function of substrate concentration with the help of a Kaleidagraph software, assuming Michaelis-Menten kinetics.
# Ki values of peptide inhibitors were calculated from substrate titration experiments performed in the presence of increasing amounts of inhibitor. Experimental data sets were simultaneously fitted to eq.1 using a multicurve fit macro with the help of a Sigmaplot software: V=(VmaxS)/(Km(1+[…])+S); (eq.1)
# Alternatively, Ki values were derived from IC50 values, calculated using a four-parameter logistic function, according to eq.2: IC50−(1+S/Km)Ki (eq.2)
# [1] = Table 4 indoline keto acids and related, read-out: IC50
# [2] = Table 1 hexapeptides, cells printed in nM, read-out: IC50
# [3] = Table 1 hexapeptides, cells printed in μM, read-out: IC50
# [4] = Table 2 tetrapeptides and tripeptides, read-out: IC50
# T1 sequence (P26663 1027-1208, other chains not shown): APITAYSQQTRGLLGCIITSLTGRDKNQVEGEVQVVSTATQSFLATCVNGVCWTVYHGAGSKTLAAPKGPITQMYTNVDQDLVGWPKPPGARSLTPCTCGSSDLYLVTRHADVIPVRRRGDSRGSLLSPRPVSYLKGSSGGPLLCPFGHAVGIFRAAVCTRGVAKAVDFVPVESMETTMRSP
compound,measurement,setting,value
"CCC(CC)CC1(C(=O)N[C@@H](CC(C)C)C(=O)NC(CC(F)F)C(=O)C(=O)O)Cc2ccccc2N1 (single isomer, unassigned) [Compound 9g]",IC50,[1],15000 nM
"CC(C)C[C@H](NC(=O)C1(CC2CC2)Cc2ccccc2N1)C(=O)NC(CC(F)F)C(=O)C(=O)O (single isomer, unassigned) [Compound 9i]",IC50,[1],20000 nM
"CC(C)C[C@H](NC(=O)C1(Cc2ccccc2Cl)Cc2ccccc2N1)C(=O)NC(CC(F)F)C(=O)C(=O)O (single isomer, unassigned) [Compound 9q]",IC50,[1],5000 nM
"CC(C)C[C@H](NC(=O)C1(Cc2cccc(C(=O)O)c2)Cc2ccccc2N1)C(=O)NC(CC(F)F)C(=O)C(=O)O (single isomer, unassigned) [Compound 9u]",IC50,[1],800 nM
"COc1ccc2c(c1)NC(C(=O)N[C@@H](CC(C)C)C(=O)NC(CC(F)F)C(=O)C(=O)O)C2 (single isomer, unassigned) [Compound 10a]",IC50,[1],25000 nM
"COc1ccc2c(c1)NC(CC(C)C)(C(=O)N[C@@H](CC(C)C)C(=O)NC(CC(F)F)C(=O)C(=O)O)C2 (single isomer, unassigned) [Compound 10b]",IC50,[1],24000 nM
"CC(C)C[C@H](NC(=O)C1Cc2ccc(OC3CCCC3)cc2N1)C(=O)NC(CC(F)F)C(=O)C(=O)O (single isomer, unassigned) [Compound 10e]",IC50,[1],18000 nM
"CC(C)C[C@H](NC(=O)C1Cc2ccc(OCC(=O)O)cc2N1)C(=O)NC(CC(F)F)C(=O)C(=O)O (single isomer, unassigned) [Compound 10f]",IC50,[1],10000 nM
"CC(C)C[C@H](NC(=O)C1Cc2ccc(OC3CCS(=O)(=O)CC3)cc2N1)C(=O)NC(CC(F)F)C(=O)C(=O)O (single isomer, unassigned) [Compound 10i]",IC50,[1],30000 nM
"CC(C)CC1c2ccccc2NC1C(=O)N[C@@H](CC(C)C)C(=O)NC(CC(F)F)C(=O)C(=O)O (single isomer, unassigned) [Compound 12]",IC50,[1],26000 nM
"CC(C)C[C@H](NC(=O)c1cc2ccccc2[nH]1)C(=O)NC(CC(F)F)C(=O)C(=O)O (single isomer, unassigned) [Compound 13]",IC50,[1],70000 nM
"CC(C)C[C@H](NC(=O)c1[nH]c2ccccc2c1OC(C(=O)O)c1cccc(Cl)c1)C(=O)NC(CC(F)F)C(=O)C(=O)O (single isomer, unassigned) [Compound 14]",IC50,[1],10000 nM
CSCC[C@H](NC(=O)[C@H](CCC(=O)O)NC(=O)[C@H](CC(=O)O)NC(C)=O)C(=O)N[C@@H](CCC(=O)O)C(=O)N[C@@H](CCC(=O)O)C(=O)NC(CC(F)F)C(=O)O (some centres unmarked) [Compound 1a] (Ac-DEMEE[X3]-OH),IC50,"IC50, Table 1 hexapeptides, cell printed without unit",3000 nM
"CC(=O)N[C@@H](CC(=O)O)C(=O)N[C@@H](CCC(=O)O)C(=O)N[C@H](C(=O)N[C@@H](CCC(=O)O)C(=O)N[C@@H](CC1CCCCC1)C(=O)NC(CC(F)F)C(=O)C(=O)O)C(c1ccccc1)c1ccccc1 (some centres unmarked) [Compound 1d] (Ac-DE[Dip]E[Cha]-{ξAbu(4,4-F2)ψ(COCO)})",IC50,[2],0.4 nM
"CC(=O)N[C@@H](CC(=O)O)C(=O)N[C@@H](CCC(=O)O)C(=O)N[C@H](C(=O)N[C@@H](CCC(=O)O)C(=O)N[C@@H](CC1CCCCC1)C(=O)NC(CC(F)F)C(=O)C(=O)NCc1ccccc1)C(c1ccccc1)c1ccccc1 (some centres unmarked) [Compound 1e] (Ac-DE[Dip]E[Cha][ξAbu(4,4-F2)ψ(COCO)]-NHBn)",IC50,[2],5 nM
COC(=O)C(=O)C(CC(F)F)NC(=O)[C@H](CC1CCCCC1)NC(=O)[C@H](CCC(=O)O)NC(=O)[C@@H](NC(=O)[C@H](CCC(=O)O)NC(=O)[C@H](CC(=O)O)NC(C)=O)C(c1ccccc1)c1ccccc1 (some centres unmarked) [Compound 1f] (Ac-DE[Dip]E[Cha]-X4),IC50,[2],800 nM
CC(=O)N[C@@H](CC(=O)O)C(=O)N[C@@H](CCC(=O)O)C(=O)N[C@H](C(=O)N[C@@H](CCC(=O)O)C(=O)N[C@@H](CC1CCCCC1)C(=O)NC(CC(F)(F)F)C(=O)O)C(c1ccccc1)c1ccccc1 (some centres unmarked) [Compound 1g] (Ac-DE[Dip]E[Cha][ξAla(CF3)]-OH),IC50,[2],100 nM
CC(=O)N[C@@H](CC(=O)O)C(=O)N[C@@H](CCC(=O)O)C(=O)N[C@H](C(=O)N[C@@H](CCC(=O)O)C(=O)N[C@@H](CC1CCCCC1)C(=O)NC(CC(=O)O)CC(F)F)C(c1ccccc1)c1ccccc1 (some centres unmarked) [Compound 1h] (Ac-DE[Dip]E[Cha]-X9),IC50,[3],3000 nM
CC(=O)N[C@@H](CC(=O)O)C(=O)N[C@@H](CCC(=O)O)C(=O)N[C@H](C(=O)N[C@@H](CCC(=O)O)C(=O)N[C@@H](CC1CCCCC1)C(=O)NC(CC(F)F)C(=O)c1nc2ccccc2s1)C(c1ccccc1)c1ccccc1 (some centres unmarked) [Compound 1i] (Ac-DE[Dip]E[Cha]-X5),IC50,[2],150 nM
CC(=O)N[C@@H](CC(=O)O)C(=O)N[C@@H](CCC(=O)O)C(=O)N[C@H](C(=O)N[C@@H](CCC(=O)O)C(=O)N[C@@H](CC1CCCCC1)C(=O)NC(CC(F)F)C(=O)c1nc2ccccc2o1)C(c1ccccc1)c1ccccc1 (some centres unmarked) [Compound 1j] (Ac-DE[Dip]E[Cha]-X8),IC50,[2],600 nM
CC(=O)N[C@@H](CC(=O)O)C(=O)N[C@@H](CCC(=O)O)C(=O)N[C@H](C(=O)N[C@@H](CCC(=O)O)C(=O)N[C@@H](CC1CCCCC1)C(=O)NC(CC(F)F)C(=O)c1nccs1)C(c1ccccc1)c1ccccc1 (some centres unmarked) [Compound 1k] (Ac-DE[Dip]E[Cha]-X7),IC50,[3],1000 nM
CC(=O)N[C@@H](CC(=O)O)C(=O)N[C@@H](CCC(=O)O)C(=O)N[C@H](C(=O)N[C@@H](CCC(=O)O)C(=O)N[C@@H](CC1CCCCC1)C(=O)NC(CC(F)F)C(=O)c1ncc[nH]1)C(c1ccccc1)c1ccccc1 (some centres unmarked) [Compound 1l] (Ac-DE[Dip]E[Cha]-X1),IC50,[3],6000 nM
CC(=O)N[C@@H](CC(=O)O)C(=O)N[C@@H](CCC(=O)O)C(=O)N[C@H](C(=O)N[C@@H](CCC(=O)O)C(=O)N[C@@H](CC1CCCCC1)C(=O)NC(CC(F)F)C(=O)c1ccco1)C(c1ccccc1)c1ccccc1 (some centres unmarked) [Compound 1m] (Ac-DE[Dip]E[Cha]-X2),IC50,[3],7000 nM
CSCC[C@H](NC(=O)[C@H](CCC(=O)O)NC(=O)[C@H](CC(=O)O)NC(C)=O)C(=O)N[C@@H](CCC(=O)O)C(=O)N[C@@H](CCC(=O)O)C(=O)NC(C=O)CC(F)F (some centres unmarked) [Compound 1n] (Ac-DEMEE[X3]-aldehyde),IC50,[2],148 nM
CCC(C)[C@H](NC(=O)[C@@H](NC(=O)[C@H](CCC(=O)O)NC(=O)CCC(=O)O)C(c1ccccc1)c1ccccc1)C(=O)N[C@@H](CC1CCCCC1)C(=O)NC(CC(F)F)C(=O)NS(=O)(=O)c1ccccc1 (some centres unmarked) [Compound 1o] (Suc-E[Dip][Ile(3ξ)][Cha]-X6),IC50,[2],800 nM
CC(=O)N[C@H](C(=O)N[C@@H](CCC(=O)O)C(=O)N[C@@H](CC1CCCCC1)C(=O)NC(CC(F)F)C(=O)C(=O)O)C(c1ccccc1)c1ccccc1 (some centres unmarked) [Compound 2a],IC50,[4],10000 nM
CC(=O)N[C@H](C(=O)N[C@@H](CCC(=O)O)C(=O)N[C@@H](CC1CCCCC1)C(=O)NC(CC(F)F)C(=O)C(=O)NCc1ccccc1)C(c1ccccc1)c1ccccc1 (some centres unmarked) [Compound 2b],IC50,[4],11400 nM
CC(=O)N[C@H]1Cc2cccc(c2)Oc2ccc(cc2)C[C@@H](C(=O)NC(CC(F)F)C(=O)C(=O)O)NC(=O)[C@H](CCC(=O)O)NC1=O (some centres unmarked) [Compound 2c],IC50,[4],47000 nM
CCC(C)[C@H](NC(=O)OCc1ccccc1)C(=O)N[C@H](C(=O)NC(CC(F)F)C(=O)C(=O)O)C(C)C (some centres unmarked) [Compound 3a],IC50,[4],16000 nM
CCC(C)[C@H](NC(=O)OCc1ccccc1)C(=O)N[C@@H](CC1CCCCC1)C(=O)NC(CC(F)F)C(=O)C(=O)O (some centres unmarked) [Compound 3b],IC50,[4],1400 nM
CCC(C)[C@H](NC(=O)OCc1ccccc1)C(=O)N[C@@H](CC(C)C)C(=O)NC(CC(F)F)C(=O)C(=O)O (some centres unmarked) [Compound 3c],IC50,[4],1400 nM
CCC(C)[C@H](NC(=O)OCc1ccccc1)C(=O)N[C@@H](CCC(=O)O)C(=O)NC(CC(F)F)C(=O)C(=O)O (some centres unmarked) [Compound 3d],IC50,[4],9300 nM
CCC(C)[C@H](NC(=O)OCc1ccccc1)C(=O)N[C@@H](CC)C(=O)NC(CC(F)F)C(=O)C(=O)O (some centres unmarked) [Compound 3e],IC50,[4],3000 nM
CCC(C)[C@H](NC(=O)OCc1ccccc1)C(=O)N[C@@H](Cc1ccccc1)C(=O)NC(CC(F)F)C(=O)C(=O)O (some centres unmarked) [Compound 3f],IC50,[4],3000 nM
CCC(C)[C@H](NC(=O)OCc1ccccc1)C(=O)N[C@@H](C)C(=O)NC(CC(F)F)C(=O)C(=O)O (some centres unmarked) [Compound 3g],IC50,[4],16000 nM
CCC(C)[C@H](NC(=O)NCc1ccccc1)C(=O)N[C@@H](CC(C)C)C(=O)NC(CC(F)F)C(=O)C(=O)O (some centres unmarked) [Compound 4a],IC50,[4],6500 nM
CCC(C)[C@H](NC(=O)NCc1cc(C(F)(F)F)cc(C(F)(F)F)c1)C(=O)N[C@@H](CC(C)C)C(=O)NC(CC(F)F)C(=O)C(=O)O (some centres unmarked) [Compound 4b],IC50,[4],39000 nM
CCC(C)[C@H](NC(=O)OCc1ccc(C(=O)OC)cc1)C(=O)N[C@@H](CC(C)C)C(=O)NC(CC(F)F)C(=O)C(=O)O (some centres unmarked) [Compound 4c],IC50,[4],1700 nM
CCC(C)[C@H](NC(=O)OCc1ccc(C(=O)O)cc1)C(=O)N[C@@H](CC(C)C)C(=O)NC(CC(F)F)C(=O)C(=O)O (some centres unmarked) [Compound 4d],IC50,[4],440 nM
CCC(C)[C@H](NC(=O)OCC1c2ccccc2-c2ccccc21)C(=O)N[C@@H](CC(C)C)C(=O)NC(CC(F)F)C(=O)C(=O)O (some centres unmarked) [Compound 4e],IC50,[4],7800 nM
CCC(C)[C@H](NC(=O)OC(C)(C)C)C(=O)N[C@@H](CC(C)C)C(=O)NC(CC(F)F)C(=O)C(=O)O (some centres unmarked) [Compound 4f],IC50,[4],1000 nM
